These results are taken from patent US6537803B1, “Amino acid transporters and uses” (Oregon Health Sciences University, priority 1993, dated 2003).

Residues, ends and D or L forms follow the SMILES beside them.

T3 sequence (P43003 whole entry): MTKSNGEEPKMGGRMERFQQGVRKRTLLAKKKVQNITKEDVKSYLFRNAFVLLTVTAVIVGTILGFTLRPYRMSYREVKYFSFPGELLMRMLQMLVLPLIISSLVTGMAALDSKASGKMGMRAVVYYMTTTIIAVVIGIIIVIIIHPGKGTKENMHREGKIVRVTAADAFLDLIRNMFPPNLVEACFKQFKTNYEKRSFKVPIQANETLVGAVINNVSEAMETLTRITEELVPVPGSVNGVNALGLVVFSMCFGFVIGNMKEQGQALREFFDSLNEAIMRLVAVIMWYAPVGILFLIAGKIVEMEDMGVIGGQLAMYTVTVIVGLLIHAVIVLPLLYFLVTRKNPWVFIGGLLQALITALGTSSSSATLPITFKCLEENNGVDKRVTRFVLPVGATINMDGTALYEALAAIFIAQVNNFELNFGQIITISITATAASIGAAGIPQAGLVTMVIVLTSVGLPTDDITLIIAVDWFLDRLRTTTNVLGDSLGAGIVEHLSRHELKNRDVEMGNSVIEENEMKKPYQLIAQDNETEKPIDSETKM

The target of the first experiment is T1, human EAAT2 (Homo sapiens, UniProt P43004).
T1 construct: expressed in transfected cells; host or cells: COS-7 cells, pCMV5 construct, DEAE-dextran transient transfection
T1 sequence (P43004 whole entry): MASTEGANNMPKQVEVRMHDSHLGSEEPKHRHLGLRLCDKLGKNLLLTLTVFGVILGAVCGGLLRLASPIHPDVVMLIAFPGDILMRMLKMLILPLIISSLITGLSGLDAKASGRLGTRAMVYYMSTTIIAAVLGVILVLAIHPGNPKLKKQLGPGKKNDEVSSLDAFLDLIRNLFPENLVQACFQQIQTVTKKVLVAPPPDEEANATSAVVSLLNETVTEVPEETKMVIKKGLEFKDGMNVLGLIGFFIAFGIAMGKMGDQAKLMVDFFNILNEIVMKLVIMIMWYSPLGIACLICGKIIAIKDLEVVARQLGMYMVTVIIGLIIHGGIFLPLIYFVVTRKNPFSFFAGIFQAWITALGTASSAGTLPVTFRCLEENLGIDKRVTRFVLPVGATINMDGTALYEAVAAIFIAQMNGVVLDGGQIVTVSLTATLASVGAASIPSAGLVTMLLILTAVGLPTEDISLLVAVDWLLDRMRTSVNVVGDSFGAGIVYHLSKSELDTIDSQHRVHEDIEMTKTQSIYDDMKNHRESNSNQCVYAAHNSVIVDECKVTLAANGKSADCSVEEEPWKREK
As to the kind of experiment: inhibition of [3H]-L-glutamate uptake in COS-7 cells expressing EAAT2. The experiment is classed as cell-based.
Conditions: not given
The source says:
(§1) DNA fragments comprising the coding sequences of the novel glutamate transporter genes of the invention were excised from the POTV constructs described in Example 3 and subcloned into the mammalian expression plasmid pCMV5 (Anderson et al., 1989, J. Biol. Chem. 264: 8222-8229). These mammalian expression constructs were used for transient expression assays of glutamate transporter protein function after transfection of each of these constructs into COS-7 cells (Gluzman, 1981, Cell 23: 175-182).
(§2) Each of the pCMV5 constructs corresponding to EAAT1, EAAT2 and EAAT3 were introduced into COS-7 cells by DEAE-dextran facilitated transfection (see Sambrook et al., ibid.). Two day following transfection, the transfected cells were washed three times in phosphate-buffered saline (PBS) and then incubated with a mixture of radiolabeled amino acid ([^3H]-L-glutamate or [^3H]-D-aspartate; Dupont-NEN) and non-radiolabeled amino acid for 10 min. After incubation, the cells were washed three times with ice-cold PBS, solubilized with a solution of 0.1% sodium dodecyl sulfate (SDS) and the amount of radioactivity associated with the cells determined using standard liquid scintillation counting methods.
(§3) COS-7 cell cultures transformed with pCMVS-human glutamate transporter constructs as described in Example 4 were used to characterize the pharmacological properties of each of these transporter proteins relative to a variety of known glutamate transporter inhibitors. These assays were performed essentially as described in Example 4, with the exception that varying amounts of each of a number of known inhibitor compounds were included in the incubations.
(§4) In these experiments, uptake of 1 μM of […] was determined in the presence of the indicated amounts of each of the inhibitors.
For the molecule `CC(C)[C@H]1CN[C@H](C(=O)O)[C@H]1CC(=O)O` [DHK, dihydrokainate], the affinity corresponds to a Ki of 23 ± 6 µM.
With `N[C@@H](COS(=O)(=O)O)C(=O)O` [SOS, L-serine-O-sulfate], the Ki (usually the equilibrium dissociation constant of an inhibitor or competing ligand from its target) is 1160 ± 275 µM.

Still in this experiment, the particulars now being: COS cell culture.
In the case of `N[C@@H](CSS(=O)(=O)O)C(=O)O` [S-sulfo-L-cysteine], the “inhibition of glutamate uptake (in words), EAAT2” value (“inhibition … EAAT2” below) is given as “ineffective”.
As for `NC1(C(=O)O)CC(C(=O)O)C1` (stereo not drawn) [cis-1-aminocyclobutane-1,3-dicarboxylate], the “inhibition … EAAT2” value was “ineffective”.
For the molecule `O=C1CC[C@@H](C(=O)O)N1` [L-pyroglutamicacid], the “inhibition … EAAT2” value is reported as “ineffective”.
Turning to `CC(=O)N[C@@H](CC(=O)O)C(=O)N[C@@H](CCC(=O)O)C(=O)O` [N-acetyl aspartylglutamate] (Ac-Asp-Glu-OH), the “inhibition … EAAT2” value was “ineffective”.
In the case of `CN[C@H](CC(=O)O)C(=O)O` [N-methyl-D-aspartate], the “inhibition … EAAT2” value is recorded as “ineffective”.
In the case of `NC(CCCC(=O)O)C(=O)O` (stereo not drawn) [α-aminoadipate], the “inhibition … EAAT2” value is recorded as “only low potency”.

Staying with this experiment, now noted: read-out: Ki, glutamate uptake inhibition constant, EAAT2.
Consider `N[C@@H](CC(=O)NO)C(=O)O` [L-aspartate-β-hydroxymate], for which the Ki was determined as 184 ± 27 µM.
Still for that read-out and setting: next, `O=C(O)[C@H]1CN[C@H](C(=O)O)C1` [PDC, L-trans-pyrrolidine-2,4-dicarboxylate]: 8 ± 2 µM.
As for `N[C@@H](CS(=O)O)C(=O)O` [L-cysteine sulfinic acid], the Ki was determined as 6 ± 1 µM.
Turning to `N[C@H](C(=O)O)[C@H](O)C(=O)O` [THA, L-threo-β-hydroxyaspartate], the Ki came out at 19 ± 6 µM.

The same experiment, now with this note: uptake of 1 μM [3H]-L-glutamate; [S] << Km, Ki does not differ significantly from measured IC50; read-out: Ki, glutamate uptake inhibition constant, EAAT2.
Take `NC(CC(=O)O)CC(=O)O` [β-glutamate]: the inhibition constant (Ki) came to 156 ± 37 µM.

A further experiment deals with T2, human EAAT3 (Homo sapiens, UniProt P43005).
T2 construct: isolation of Clone GT11B containing a full-length open reading frame encoding EAAT3; expressed in transfected cells; host or cells: COS-7 cells, pCMV5 construct, DEAE-dextran transient transfection
T2 sequence (P43005 1-524): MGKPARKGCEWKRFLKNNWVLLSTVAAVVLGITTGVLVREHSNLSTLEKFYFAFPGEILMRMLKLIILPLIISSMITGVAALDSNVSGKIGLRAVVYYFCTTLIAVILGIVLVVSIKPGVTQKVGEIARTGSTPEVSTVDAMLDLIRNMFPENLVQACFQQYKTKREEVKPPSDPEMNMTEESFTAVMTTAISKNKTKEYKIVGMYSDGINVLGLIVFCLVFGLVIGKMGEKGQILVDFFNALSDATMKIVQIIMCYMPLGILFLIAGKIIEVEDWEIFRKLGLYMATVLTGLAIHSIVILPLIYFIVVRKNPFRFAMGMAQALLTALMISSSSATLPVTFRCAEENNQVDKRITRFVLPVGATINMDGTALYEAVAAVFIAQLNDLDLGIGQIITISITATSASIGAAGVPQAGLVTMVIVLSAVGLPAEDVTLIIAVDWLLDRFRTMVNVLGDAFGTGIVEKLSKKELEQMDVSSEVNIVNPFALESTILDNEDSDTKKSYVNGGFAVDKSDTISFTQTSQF
As to the kind of experiment: inhibition of [3H]-L-glutamate uptake in COS-7 cells expressing EAAT3.
Conditions: not given
The experiment is classed as cell-based.
Source text: as §1, §2, §3, §4
Consider `CC(C)[C@H]1CN[C@H](C(=O)O)[C@H]1CC(=O)O` [DHK, dihydrokainate], for which the Ki is above 1000 µM.
As to `N[C@@H](COS(=O)(=O)O)C(=O)O` [SOS, L-serine-O-sulfate], the inhibitory constant (Ki) came to 150 ± 52 µM.

The same experiment, now with this note: COS cell culture.
For `N[C@@H](CSS(=O)(=O)O)C(=O)O` [S-sulfo-L-cysteine], the “inhibition of glutamate uptake (in words), EAAT3” value (“inhibition … EAAT3” for short) is listed as “ineffective”.
In the case of `NC1(C(=O)O)CC(C(=O)O)C1` (stereo not drawn) [cis-1-aminocyclobutane-1,3-dicarboxylate], the “inhibition … EAAT3” value is “ineffective”.
Take `O=C1CC[C@@H](C(=O)O)N1` [L-pyroglutamicacid]: the “inhibition … EAAT3” value is reported as “ineffective”.
On the same count and under the same terms, next, `CC(=O)N[C@@H](CC(=O)O)C(=O)N[C@@H](CCC(=O)O)C(=O)O` [N-acetyl aspartylglutamate] (Ac-Asp-Glu-OH): “ineffective”; `CN[C@H](CC(=O)O)C(=O)O` [N-methyl-D-aspartate]: “ineffective”.
For `NC(CCCC(=O)O)C(=O)O` (stereo not drawn) [α-aminoadipate], the “inhibition … EAAT3” value is “only low potency”.

Staying with this experiment, now noted: read-out: Ki, glutamate uptake inhibition constant, EAAT3.
For the molecule `N[C@@H](CC(=O)NO)C(=O)O` [L-aspartate-β-hydroxymate], the Ki was 133 ± 34 µM.
On the same count and under the same terms, next, `O=C(O)[C@H]1CN[C@H](C(=O)O)C1` [PDC, L-trans-pyrrolidine-2,4-dicarboxylate]: 61 ± 14 µM.
In the case of `N[C@@H](CS(=O)O)C(=O)O` [L-cysteine sulfinic acid], the Ki came to 17 ± 2 µM.
For `N[C@H](C(=O)O)[C@H](O)C(=O)O` [THA, L-threo-β-hydroxyaspartate], the Ki worked out at 25 ± 5 µM.

The experiment is the same for the next values; noted with them: uptake of 1 μM [3H]-L-glutamate; [S] << Km, Ki does not differ significantly from measured IC50; read-out: Ki, glutamate uptake inhibition constant, EAAT3.
For the molecule `NC(CC(=O)O)CC(=O)O` [β-glutamate], the inhibition constant (Ki) worked out at 307 ± 48 µM.

The next experiment addresses T3, human EAAT1 (Homo sapiens, UniProt P43003).
T3 construct: expressed in transfected cells; host or cells: COS-7 cells, pCMV5 construct, DEAE-dextran transient transfection
As to the kind of experiment: inhibition of [3H]-L-glutamate uptake in COS-7 cells expressing EAAT1. It is filed as cell-based.
Conditions: not given
Source text: as §1, §2, §3, §4
For `CC(C)[C@H]1CN[C@H](C(=O)O)[C@H]1CC(=O)O` [DHK, dihydrokainate], the Ki is above 1000 µM.
For `N[C@@H](COS(=O)(=O)O)C(=O)O` [SOS, L-serine-O-sulfate], the affinity corresponds to a Ki of 107 ± 8 µM.

The experiment is the same for the next values; noted with them: COS cell culture.
Regarding `N[C@@H](CSS(=O)(=O)O)C(=O)O` [S-sulfo-L-cysteine], the “inhibition of glutamate uptake (in words), EAAT1” value (“inhibition … EAAT1” below) is listed as “ineffective”.
Take `NC1(C(=O)O)CC(C(=O)O)C1` (stereo not drawn) [cis-1-aminocyclobutane-1,3-dicarboxylate]: the “inhibition … EAAT1” value was “ineffective”.
Turning to `O=C1CC[C@@H](C(=O)O)N1` [L-pyroglutamicacid], the “inhibition … EAAT1” value is listed as “ineffective”.
For `CC(=O)N[C@@H](CC(=O)O)C(=O)N[C@@H](CCC(=O)O)C(=O)O` [N-acetyl aspartylglutamate] (Ac-Asp-Glu-OH), the “inhibition … EAAT1” value was “ineffective”.
Still for that read-out and setting: next, `CN[C@H](CC(=O)O)C(=O)O` [N-methyl-D-aspartate]: “ineffective”.
The same measure, in the same setting: next, `NC(CCCC(=O)O)C(=O)O` (stereo not drawn) [α-aminoadipate]: “only low potency”.

The experiment is the same for the next values; noted with them: read-out: Ki, glutamate uptake inhibition constant, EAAT1.
`N[C@@H](CC(=O)NO)C(=O)O` [L-aspartate-β-hydroxymate]: the Ki was 369 ± 70 µM.
As to `O=C(O)[C@H]1CN[C@H](C(=O)O)C1` [PDC, L-trans-pyrrolidine-2,4-dicarboxylate], the Ki turned out to be 79 ± 7 µM.
Still for that read-out and setting: next, `N[C@@H](CS(=O)O)C(=O)O` [L-cysteine sulfinic acid]: 14 ± 7 µM; `N[C@H](C(=O)O)[C@H](O)C(=O)O` [THA, L-threo-β-hydroxyaspartate]: 32 ± 8 µM.

The experiment is the same for the next values; noted with them: uptake of 1 μM [3H]-L-glutamate; [S] << Km, Ki does not differ significantly from measured IC50; read-out: Ki, glutamate uptake inhibition constant, EAAT1.
Consider `NC(CC(=O)O)CC(=O)O` [β-glutamate], for which the Ki came out at 297 ± 118 µM.
